Each block holds one compound with its values, some of them ahead of it.
Assay: solvent given as SMILES

SMILES: N#Cc1c(-n2c3ccccc3c3cc(Br)ccc32)c(C#N)c(-n2c3ccccc3c3cc(Br)ccc32)c(-n2c3ccccc3c3cc(Br)ccc32)c1-n1c2ccccc2c2cc(Br)ccc21
absorption maximum (in Cc1ccccc1): 381 nm

SMILES: O=[N+]([O-])c1ccccc1O
absorption maximum (in CO): 338 nm
absorption maximum (in O): 411 nm

SMILES: CCn1c2ccccc2c2cccc(N(c3ccccc3)c3ccccc3)c21
absorption maximum (in ClCCl): 353 nm

SMILES: Cc1cc(-c2ccccc2)nc2c1ccc1nc(-c3ccccc3)cn12
absorption maximum (in CC#N): 347 nm
absorption maximum (in CCCCOC(C)=O): 350 nm
absorption maximum (in CCOC(C)=O): 352 nm
absorption maximum (in CO): 345 nm
absorption maximum (in ClC(Cl)Cl): 350 nm
absorption maximum (in ClCCl): 348 nm
absorption maximum (in c1ccccc1): 351 nm

SMILES: Cc1ccc(C2=[N+]3C(=Cc4ccc(C)n4[B-]3(F)F)c3ccccc32)[nH]1
absorption maximum (in C1CCOC1): 599 nm
absorption maximum (in CC#N): 592 nm
absorption maximum (in CCCCCC): 602 nm
absorption maximum (in CO): 595 nm
absorption maximum (in Cc1ccccc1): 606 nm
absorption maximum (in ClCCl): 600 nm

SMILES: CC(C)CCC[C@@H](C)[C@H]1CC[C@H]2[C@@H]3CC=C4C[C@@H](OC(=O)Oc5cc(/C=C/C=C/c6ccc(N(C)C)cc6)ccc5[N+](=O)[O-])CC[C@]4(C)[C@H]3CC[C@]12C
absorption maximum (in CO): 448 nm

SMILES: O=P1(c2ccccc2)C(c2ccc(N(c3ccccc3)c3ccccc3)cc2)=Cc2cc3ccccc3cc21 (stereo not drawn)
absorption maximum (in C1CCOC1): 407 nm
absorption maximum (in CC#N): 404 nm
absorption maximum (in CN(C)C=O): 407 nm
absorption maximum (in Cc1ccccc1): 412 nm
absorption maximum (in ClC(Cl)Cl): 417 nm
absorption maximum (in ClCCl): 414 nm

SMILES: C(S/C=C/c1ccc(/C=C/SC=C2CCCCCCC2)cc1)=C1CCCCCCC1
absorption maximum (in ClCCl): 355 nm

SMILES: NC(=O)Cc1cccc2ccccc12
absorption maximum (in C1COCCO1): 283 nm
absorption maximum (in CC#N): 282 nm
absorption maximum (in CCO): 282 nm
absorption maximum (in ClC(Cl)Cl): 283 nm
absorption maximum (in O): 280 nm
absorption maximum (in OCCO): 283 nm
absorption maximum (in [2H]O[2H]): 280 nm

SMILES: CCCCCCCCCCCCCCn1c(-c2cc(-c3nc4ccc(C)cc4n3CCCCCCCCCCCCCC)cc(-c3nc4ccc(C)cc4n3CCCCCCCCCCCCCC)c2)nc2ccc(C)cc21
absorption maximum (in ClCCl): 306.5 nm

SMILES: CSc1ccc(/C=C/c2ccncn2)cc1
absorption maximum (in ClCCl): 346 nm

SMILES: C(#Cc1cccs1)C(C#Cc1cccs1)=Cc1ccc(C=C(C#Cc2cccs2)C#Cc2cccs2)s1
absorption maximum (in ClC(Cl)Cl): 486 nm

SMILES: CC1=CC(C)=[N+]2C1=C(c1c3ccccc3c(-c3ccccc3)c3ccccc13)c1c(C)cc(C)n1[B-]2(F)F
absorption maximum (in CC#N): 503 nm
absorption maximum (in CCCCCC): 505 nm
absorption maximum (in CCO): 504 nm
absorption maximum (in CN(C)C=O): 507 nm
absorption maximum (in Cc1ccccc1): 509 nm
absorption maximum (in ClCCl): 507 nm

SMILES: c1ccc(-c2cc(-c3ccc4ccc5c(-c6ccnc(-c7ccccn7)c6)ccc6ccc3c4c65)ccn2)nc1
absorption maximum (in C1CCOC1): 362 nm
absorption maximum (in CC#N): 360 nm
absorption maximum (in CCC#N): 360 nm
absorption maximum (in CCCC#N): 360 nm
absorption maximum (in CCCCCC): 361 nm
absorption maximum (in CCCO): 361 nm
absorption maximum (in CCO): 361 nm
absorption maximum (in CO): 363 nm
absorption maximum (in Cc1ccccc1): 362 nm

SMILES: Cc1cc(C2=C(c3cc(C)sc3C)S(=O)(=O)c3ccccc32)c(C)s1
absorption maximum (in C1CCOC1): 349 nm

SMILES: Cc1cccc2c3ccccc3n(-c3ccc(-c4c(-c5ccccc5)c(C#N)c(C#N)c(-c5ccccc5)c4-c4ccc(-n5c6ccccc6c6cccc(C)c65)cc4)cc3)c12
absorption maximum (in Cc1ccccc1): 339 nm

SMILES: CCCCCCCCCCCCC(CCCCCCCCCC)Cn1c2cc(/C=C/c3nc4ccccc4s3)c3cccc4c5cccc6c(/C=C/c7nc8ccccc8s7)cc1c(c65)c2c34 (stereo not drawn)
absorption maximum (in C1CCCCC1): 517 nm
absorption maximum (in CC#N): 516 nm
absorption maximum (in Cc1ccccc1): 524 nm
absorption maximum (in ClCCl): 521 nm

SMILES: C(=C\c1ccc(/C=C/c2ccc(N(c3ccccc3)c3ccccc3)cc2)c2nsnc12)/c1ccc(N(c2ccccc2)c2ccccc2)cc1
absorption maximum (in C1CCOC1): 512 nm
absorption maximum (in CCOC(C)=O): 502 nm
absorption maximum (in CN(C)C=O): 513 nm
absorption maximum (in Cc1ccccc1): 521 nm
absorption maximum (in ClC(Cl)Cl): 514 nm
absorption maximum (in ClCCl): 512 nm

SMILES: CCCCCCCCC1(CCCCCCCC)c2cc(-c3ccc(C=C4C(=O)c5ccccc5C4=O)cc3)ccc2-c2ccc(-c3ccc(C=C4C(=O)c5ccccc5C4=O)cc3)cc21
absorption maximum (in C1CCOC1): 436 nm
absorption maximum (in CC(C)=O): 433 nm
absorption maximum (in CCCCCC): 419 nm
absorption maximum (in CS(C)=O): 441 nm
absorption maximum (in Cc1ccccc1): 429 nm
absorption maximum (in ClC(Cl)Cl): 444 nm

SMILES: CCCCCCOc1cc(/C=C2\C(=O)c3ccccc3C2=C(C#N)C#N)c(OCCCCCC)cc1/C=C1\C(=O)c2ccccc2C1=C(C#N)C#N
absorption maximum (in ClCCl): 548 nm

SMILES: O=C(O)CCCCCn1c2ccccc2c(=O)c2ccccc21
absorption maximum (in O): 410 nm

SMILES: CCn1c2ccccc2c2cc(C#Cc3cc(C#Cc4ccc5c(c4)c4ccccc4n5CC)nc(OC)n3)ccc21
absorption maximum (in C1CCOC1): 388 nm
absorption maximum (in CCOC(C)=O): 384 nm
absorption maximum (in CN(C)C=O): 392 nm
absorption maximum (in Cc1ccccc1): 389 nm
absorption maximum (in ClCCl): 390 nm

SMILES: CCN(CC)c1ccc2c(c1)oc(=O)c1c(=O)oc3c(OC)cccc3c12
absorption maximum (in CS(C)=O): 462 nm
absorption maximum (in ClCCl): 458 nm

SMILES: CCC(CC)COC1=CC2=C3c4cc(OCC(CC)CC)c(-c5cccs5)n4[B-](F)(F)[n+]4nnn(c43)[B-](F)(F)[N+]2=C1c1cccs1
absorption maximum (in C1CCOC1): 784 nm
absorption maximum (in ClCCl): 795 nm

SMILES: CCOC(=O)c1cc(C(=O)OCC)c2cc(OC)ccc2n1
absorption maximum (in CCO): 355 nm

SMILES: Cc1ccccc1-c1c2cccc3c(-c4ccc(C(C)(C)C)cc4)cc4c(-c5ccccc5C)c5cccc6c(-c7ccc(C(C)(C)C)cc7)cc1c(c65)c4c32
absorption maximum (in ClCCl): 447 nm

SMILES: COC1=[N+]2C(=C(c3ccc(C)cc3)c3ccc(OC)n3[B-]2(F)F)C=C1
absorption maximum (in C1CCCCC1): 513 nm
absorption maximum (in C1CCOC1): 514 nm
absorption maximum (in CC#N): 510 nm
absorption maximum (in CCOC(C)=O): 512 nm
absorption maximum (in CO): 510 nm
absorption maximum (in Cc1ccccc1): 517 nm
absorption maximum (in ClC(Cl)Cl): 516 nm

SMILES: CCN(CC)c1ccc(-c2nc(Oc3ccc(-c4nc5ccccc5[nH]4)cc3)nc(Oc3ccc(-c4nc5ccccc5[nH]4)cc3)n2)cc1
absorption maximum (in CN(C)C=O): 376 nm

SMILES: CCCCCCCCCCOc1cc(OCCCCCCCCCC)cc(C2=C3C(/C=C/c4ccc(OC)cc4)=CC(/C=C/c4ccc(OC)cc4)=[N+]3[B-](F)(F)n3c(/C=C/c4ccc(OC)cc4)cc(C=Cc4ccc(OC)cc4)c32)c1
absorption maximum (in ClC(Cl)Cl): 689 nm

SMILES: CC1=C(c2cccs2)C(C)=[N+]2C1=C(c1ccc(O)cc1)c1c(C)c(-c3cccs3)c(C)n1[B-]2(F)F
absorption maximum (in CO): 521 nm
absorption maximum (in Cc1ccccc1): 530 nm
absorption maximum (in ClCCl): 528 nm

SMILES: Cc1ccc2cc3c(=O)n(C)c(=O)n(C)c3nc2c1
absorption maximum (in CC#N): 353 nm
absorption maximum (in CC(C)O): 353 nm
absorption maximum (in CCO): 353 nm
absorption maximum (in CO): 352 nm
absorption maximum (in ClC(Cl)Cl): 355 nm
absorption maximum (in ClCCl): 355 nm

SMILES: CCn1c2ccccc2c2cc(C#Cc3cc(C#Cc4ccc5c(c4)c4ccccc4n5CC)nc(SC)n3)ccc21
absorption maximum (in C1CCOC1): 396 nm
absorption maximum (in CCOC(C)=O): 392 nm
absorption maximum (in CN(C)C=O): 399 nm
absorption maximum (in Cc1ccccc1): 396 nm
absorption maximum (in ClCCl): 396 nm

Next, values leading:

absorption maximum (in C1CCCCC1): 421 nm
absorption maximum (in CC#N): 432 nm
absorption maximum (in CCO): 433 nm
SMILES: COc1ccc2c(c1)C(=O)c1ccccc1-2

absorption maximum (in ClCCl): 260 nm
SMILES: Cn1nc(-c2ccc(C(F)(F)F)cc2)cc1-c1ccccc1

absorption maximum (in ClCCl): 340 nm
SMILES: CC(C)(C)c1ccc2c(c1)c1cc(C(C)(C)C)ccc1n2-c1ccc(-c2cccs2)s1

absorption maximum (in CN(C)C=O): 322 nm
SMILES: Cc1ccc2nc(-c3cccc4nc(C)[nH]c(=O)c34)[nH]c2c1

absorption maximum (in CCCCCC): 362 nm
absorption maximum (in CCO): 362 nm
absorption maximum (in CCOC(C)=O): 362 nm
absorption maximum (in ClCCl): 365 nm
SMILES: Cc1ccc(C#Cc2ccc3ccc4cccc5ccc2c3c45)cc1

absorption maximum (in CN(C)C=O): 310 nm
SMILES: Cc1nc2cccc(-c3nc4ccc([N+](=O)[O-])cc4[nH]3)c2c(=O)[nH]1

absorption maximum (in C1CCOC1): 410 nm
absorption maximum (in CC#N): 410 nm
absorption maximum (in CCCCCCC): 402 nm
absorption maximum (in CS(C)=O): 423 nm
absorption maximum (in ClCCl): 414 nm
SMILES: C(=C\c1cnc2ccccc2n1)/c1ccc(N2CCCCC2)cc1

absorption maximum (in ClCCl): 350 nm
SMILES: COc1ccc(-c2cnc(/C=C/c3ccccc3)o2)cc1OC

absorption maximum (in CC#N): 538 nm
absorption maximum (in CCCCCC): 555 nm
absorption maximum (in CCOC(C)=O): 549 nm
absorption maximum (in CO): 544 nm
absorption maximum (in ClCCl): 552 nm
SMILES: CCCSc1ccc2n1[B-](F)(F)[N+]1=C(SC#N)C=CC1=C2c1ccccc1

absorption maximum (in ClCCl): 426 nm
absorption maximum (in O): 394 nm
SMILES: N#CC(C#N)=Cc1ccc(-c2ccc(-c3nc4ccccc4s3)c(O)c2)o1

absorption maximum (in CS(C)=O): 491 nm
absorption maximum (in O): 564 nm
SMILES: CC1(C)C(/C=C/C=C/c2cc3ccc(O)cc3oc2=O)=[N+](CCCS(=O)(=O)[O-])c2ccccc21

absorption maximum (in ClCCl): 311 nm
SMILES: COc1cc2c(cc1OC)C1=C[C@H](c3ccccc3)C3(C(C#N)=C(C#N)N1CC2)c1cc(Br)ccc1-c1ccc(Br)cc13

absorption maximum (in CC#N): 392 nm
absorption maximum (in CO): 372 nm
absorption maximum (in CS(C)=O): 408 nm
absorption maximum (in O): 330 nm
SMILES: O=C(NCc1cc(=O)oc2cc(O)c(Br)cc12)c1cccnc1

absorption maximum (in C1CCOC1): 392 nm
SMILES: N#Cc1c(N2CCCCC2)cc(-c2ccccc2)c2c1-c1ccccc1C2=O

absorption maximum (in ClCCl): 348 nm
SMILES: CC(C)(C)c1ccc2c3ccccc3c3cncnc3c2c1

absorption maximum (in ClCCl): 378 nm
SMILES: C1=C(c2ccccc2)S[C@]23C1=C(c1ccccc1)[C@H](c1ccccc12)c1ccccc13

absorption maximum (in O): 413 nm
SMILES: O=C(O)c1cccc2c(=O)c3ccccc3[nH]c12

absorption maximum (in C1CCOC1): 464 nm
absorption maximum (in CC#N): 468 nm
absorption maximum (in CCO): 460 nm
absorption maximum (in CO): 461 nm
absorption maximum (in ClCCl): 468 nm
SMILES: O=C1C2=C(O[B-](F)(F)[n+]3c2ccc2ccccc23)c2ccc(N3CCOCC3)c3cccc1c23

absorption maximum (in CCCCCC): 338 nm
absorption maximum (in CO): 338 nm
absorption maximum (in ClCCl): 341 nm
SMILES: Cc1ccc2ccc3cccc4ccc1c2c34

absorption maximum (in C1CCCCC1): 315 nm
SMILES: CCCC1(CCC)c2ccccc2-c2ccc(-c3ccc(OC)cc3)cc21
